Source: ChEMBL document CHEMBL5465560, “Selectivity Literature for EUbOPEN Chemogenomic Library” (2024)
Values belong to the compound of their own block, whether it stands above or below them.

Assays:
[1] = molecular target: T1, Aurora kinase C (Homo sapiens) (UniProt Q9UQB9); experiment: Selectivity interaction (KinomeScan (DiscoverX)) EUB0000666a AURKC; conditions: at 10 µM
T1 sequence (whole entry): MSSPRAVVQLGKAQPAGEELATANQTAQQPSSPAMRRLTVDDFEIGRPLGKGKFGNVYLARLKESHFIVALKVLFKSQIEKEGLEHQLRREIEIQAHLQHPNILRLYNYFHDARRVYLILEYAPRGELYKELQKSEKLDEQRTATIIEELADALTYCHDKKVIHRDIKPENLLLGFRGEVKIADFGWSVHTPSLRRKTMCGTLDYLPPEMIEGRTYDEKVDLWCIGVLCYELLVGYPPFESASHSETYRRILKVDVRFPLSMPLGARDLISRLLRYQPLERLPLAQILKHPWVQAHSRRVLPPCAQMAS

[2] = molecular target: Ribosomal protein S6 kinase alpha-4 (Homo sapiens) (UniProt O75676); experiment: Selectivity interaction (KinomeScan (DiscoverX)) EUB0000311b RPS6KA4; conditions: at 1 µM
[3] = molecular target: T2, Aurora kinase A (Homo sapiens) (UniProt O14965); experiment: Selectivity interaction (ActivX KiNativ screen (kinase selectivity in THP-1 cell lysates)) EUB0000639a STK6; type: subcellular; conditions: lysate, at 1 µM
T2 sequence (whole entry): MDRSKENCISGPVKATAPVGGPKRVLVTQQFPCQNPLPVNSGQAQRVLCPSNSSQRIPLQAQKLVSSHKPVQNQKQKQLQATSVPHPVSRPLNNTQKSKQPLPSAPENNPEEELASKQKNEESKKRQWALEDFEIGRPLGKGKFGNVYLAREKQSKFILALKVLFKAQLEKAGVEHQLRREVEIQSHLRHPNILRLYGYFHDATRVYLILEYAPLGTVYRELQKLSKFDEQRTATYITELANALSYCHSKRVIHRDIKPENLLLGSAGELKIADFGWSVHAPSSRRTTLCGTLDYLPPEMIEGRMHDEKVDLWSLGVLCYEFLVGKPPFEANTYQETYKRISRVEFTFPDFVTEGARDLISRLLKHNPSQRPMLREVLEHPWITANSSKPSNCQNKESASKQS

[4] = molecular target: [Pyruvate dehydrogenase (acetyl-transferring)] kinase isozyme 1, mitochondrial (Homo sapiens, UniProt Q15118); experiment: Selectivity interaction (ActivX KiNativ screen (kinase selectivity in THP-1 cell lysates)) EUB0000639a PDK1; type: subcellular; conditions: lysate
[5] = test system: Phosphatidylinositol 4,5-bisphosphate 3-kinase catalytic subunit alpha isoform (Homo sapiens), P42336 [H1047L]; conditions: at 10 µM
[6] = molecular target: T3, Alpha-1B adrenergic receptor (Homo sapiens) (UniProt P35368); experiment: Selectivity interaction (Panel of kinases, GPCRs, ion channels and transporters (enzymatic assay)) EUB0000223bCl ADRA1B
T3 sequence (whole entry): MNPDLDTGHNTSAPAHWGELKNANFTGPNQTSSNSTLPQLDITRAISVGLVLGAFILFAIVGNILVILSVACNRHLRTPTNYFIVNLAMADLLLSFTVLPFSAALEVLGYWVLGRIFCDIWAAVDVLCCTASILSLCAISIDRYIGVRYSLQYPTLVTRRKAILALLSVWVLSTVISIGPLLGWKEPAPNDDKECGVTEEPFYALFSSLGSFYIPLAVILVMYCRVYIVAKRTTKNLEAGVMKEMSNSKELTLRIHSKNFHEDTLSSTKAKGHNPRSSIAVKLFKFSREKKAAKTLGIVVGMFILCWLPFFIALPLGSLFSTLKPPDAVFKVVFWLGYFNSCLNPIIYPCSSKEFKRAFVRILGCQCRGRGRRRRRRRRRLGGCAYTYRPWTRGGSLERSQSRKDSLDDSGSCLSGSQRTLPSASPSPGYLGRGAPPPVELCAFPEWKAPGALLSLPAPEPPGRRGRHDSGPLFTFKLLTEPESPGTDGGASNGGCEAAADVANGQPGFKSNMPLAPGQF

[7] = molecular target: T4, Serine/threonine-protein kinase RIO3 (Homo sapiens) (UniProt O14730); experiment: Selectivity interaction (KinomeScan (DiscoverX)) EUB0000655a RIOK3; conditions: at 10 µM
T4 sequence (whole entry): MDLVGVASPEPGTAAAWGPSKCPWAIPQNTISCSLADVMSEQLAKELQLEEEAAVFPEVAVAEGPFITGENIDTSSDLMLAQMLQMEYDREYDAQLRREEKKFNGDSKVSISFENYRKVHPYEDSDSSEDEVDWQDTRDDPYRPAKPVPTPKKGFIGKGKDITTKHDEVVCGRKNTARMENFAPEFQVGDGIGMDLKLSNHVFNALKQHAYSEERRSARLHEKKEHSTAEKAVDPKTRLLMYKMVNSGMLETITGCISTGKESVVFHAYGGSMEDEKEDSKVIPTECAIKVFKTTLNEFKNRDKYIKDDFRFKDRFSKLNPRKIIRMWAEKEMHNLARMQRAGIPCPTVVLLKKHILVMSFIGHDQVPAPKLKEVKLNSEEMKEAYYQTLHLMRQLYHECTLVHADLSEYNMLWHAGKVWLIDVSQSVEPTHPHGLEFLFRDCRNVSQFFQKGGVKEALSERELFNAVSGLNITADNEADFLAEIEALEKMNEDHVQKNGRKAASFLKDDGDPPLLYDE

[8] = molecular target: Tyrosine-protein kinase Yes (Homo sapiens) (UniProt P07947); experiment: Selectivity interaction (KinomeScan (DiscoverX)) EUB0000655a YES1; conditions: at 10 µM
[9] = molecular target: Sigma non-opioid intracellular receptor 1 (Homo sapiens) (UniProt Q99720); experiment: Selectivity interaction (GPCR panel (PDSP screen)) EUB0001079a SIGMAR1; conditions: at 10 µM
[10] = molecular target: T5, Serine/threonine-protein kinase Nek2 (Homo sapiens) (UniProt P51955); experiment: Selectivity interaction (KinomeScan (DiscoverX)) EUB0001619a NEK2; conditions: at 1 µM
T5 sequence (whole entry): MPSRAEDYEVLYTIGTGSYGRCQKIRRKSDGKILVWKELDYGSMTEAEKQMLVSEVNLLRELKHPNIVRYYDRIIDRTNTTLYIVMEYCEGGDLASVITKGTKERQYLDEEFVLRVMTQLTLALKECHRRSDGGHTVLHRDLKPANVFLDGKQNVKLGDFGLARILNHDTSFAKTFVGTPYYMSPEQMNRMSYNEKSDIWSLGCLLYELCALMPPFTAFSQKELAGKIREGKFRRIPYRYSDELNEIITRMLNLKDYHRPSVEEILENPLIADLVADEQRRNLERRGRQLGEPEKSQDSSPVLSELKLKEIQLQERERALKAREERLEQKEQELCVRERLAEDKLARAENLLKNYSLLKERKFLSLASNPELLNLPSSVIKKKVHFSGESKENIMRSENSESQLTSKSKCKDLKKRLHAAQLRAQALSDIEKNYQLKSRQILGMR

Sequence of Phosphatidylinositol 4,5-bisphosphate 3-kinase catalytic subunit alpha isoform (Homo sapiens), P42336 [H1047L] (P42336 whole entry H1047L, canonical isoform): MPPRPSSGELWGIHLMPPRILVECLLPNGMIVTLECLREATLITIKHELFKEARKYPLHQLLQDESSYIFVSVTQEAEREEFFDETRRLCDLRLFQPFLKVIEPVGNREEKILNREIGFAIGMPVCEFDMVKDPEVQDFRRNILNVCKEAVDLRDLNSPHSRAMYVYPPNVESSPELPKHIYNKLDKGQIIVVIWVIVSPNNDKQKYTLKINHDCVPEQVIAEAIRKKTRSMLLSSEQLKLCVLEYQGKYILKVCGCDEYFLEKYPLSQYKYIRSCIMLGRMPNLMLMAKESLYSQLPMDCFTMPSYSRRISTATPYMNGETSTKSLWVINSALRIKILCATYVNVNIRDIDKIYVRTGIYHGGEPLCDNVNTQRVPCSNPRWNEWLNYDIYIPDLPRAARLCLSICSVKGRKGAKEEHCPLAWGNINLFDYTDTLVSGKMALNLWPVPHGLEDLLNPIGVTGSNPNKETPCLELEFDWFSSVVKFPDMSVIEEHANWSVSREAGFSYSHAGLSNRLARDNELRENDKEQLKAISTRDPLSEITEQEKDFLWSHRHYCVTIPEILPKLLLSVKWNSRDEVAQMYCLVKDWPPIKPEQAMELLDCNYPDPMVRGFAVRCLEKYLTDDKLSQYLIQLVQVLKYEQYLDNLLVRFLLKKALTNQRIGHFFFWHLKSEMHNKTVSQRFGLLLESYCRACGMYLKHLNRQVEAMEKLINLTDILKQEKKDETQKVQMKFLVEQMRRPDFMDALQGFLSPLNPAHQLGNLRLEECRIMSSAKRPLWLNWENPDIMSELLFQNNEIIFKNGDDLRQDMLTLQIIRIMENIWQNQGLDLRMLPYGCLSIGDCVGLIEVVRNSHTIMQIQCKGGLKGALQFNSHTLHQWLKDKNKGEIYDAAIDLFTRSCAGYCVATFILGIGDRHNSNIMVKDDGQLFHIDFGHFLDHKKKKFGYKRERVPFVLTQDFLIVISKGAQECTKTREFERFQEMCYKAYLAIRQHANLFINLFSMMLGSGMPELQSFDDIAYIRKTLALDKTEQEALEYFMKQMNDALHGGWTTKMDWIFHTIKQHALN
Sequence of Sigma non-opioid intracellular receptor 1 (Homo sapiens) (Q99720 whole entry): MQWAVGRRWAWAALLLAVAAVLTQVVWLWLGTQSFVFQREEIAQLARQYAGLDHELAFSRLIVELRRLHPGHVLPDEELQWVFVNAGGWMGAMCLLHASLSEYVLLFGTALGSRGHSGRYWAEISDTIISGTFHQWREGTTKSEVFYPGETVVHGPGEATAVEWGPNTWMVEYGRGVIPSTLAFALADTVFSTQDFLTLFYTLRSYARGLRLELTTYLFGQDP
Sequence of Ribosomal protein S6 kinase alpha-4 (Homo sapiens) (O75676 whole entry, looked up): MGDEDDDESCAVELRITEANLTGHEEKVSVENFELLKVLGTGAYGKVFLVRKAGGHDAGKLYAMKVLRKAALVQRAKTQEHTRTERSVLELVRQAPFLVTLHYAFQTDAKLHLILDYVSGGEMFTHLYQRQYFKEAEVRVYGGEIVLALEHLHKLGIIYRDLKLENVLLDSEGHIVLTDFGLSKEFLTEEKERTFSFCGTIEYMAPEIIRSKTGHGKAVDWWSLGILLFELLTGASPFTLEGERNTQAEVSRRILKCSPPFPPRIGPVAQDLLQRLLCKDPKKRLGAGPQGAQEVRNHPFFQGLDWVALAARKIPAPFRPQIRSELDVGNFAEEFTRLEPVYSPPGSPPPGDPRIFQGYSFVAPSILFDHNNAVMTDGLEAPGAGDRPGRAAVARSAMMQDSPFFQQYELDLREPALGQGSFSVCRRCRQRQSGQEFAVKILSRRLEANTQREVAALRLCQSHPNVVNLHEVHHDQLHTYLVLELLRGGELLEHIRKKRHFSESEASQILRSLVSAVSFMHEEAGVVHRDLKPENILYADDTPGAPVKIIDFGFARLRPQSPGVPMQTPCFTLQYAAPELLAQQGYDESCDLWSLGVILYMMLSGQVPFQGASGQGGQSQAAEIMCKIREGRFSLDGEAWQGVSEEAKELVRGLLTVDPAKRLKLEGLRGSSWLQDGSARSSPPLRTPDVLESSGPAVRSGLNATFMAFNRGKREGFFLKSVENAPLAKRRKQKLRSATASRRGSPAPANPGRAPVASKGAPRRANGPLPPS
Sequence of Tyrosine-protein kinase Yes (Homo sapiens) (P07947 2-543 limits assumed): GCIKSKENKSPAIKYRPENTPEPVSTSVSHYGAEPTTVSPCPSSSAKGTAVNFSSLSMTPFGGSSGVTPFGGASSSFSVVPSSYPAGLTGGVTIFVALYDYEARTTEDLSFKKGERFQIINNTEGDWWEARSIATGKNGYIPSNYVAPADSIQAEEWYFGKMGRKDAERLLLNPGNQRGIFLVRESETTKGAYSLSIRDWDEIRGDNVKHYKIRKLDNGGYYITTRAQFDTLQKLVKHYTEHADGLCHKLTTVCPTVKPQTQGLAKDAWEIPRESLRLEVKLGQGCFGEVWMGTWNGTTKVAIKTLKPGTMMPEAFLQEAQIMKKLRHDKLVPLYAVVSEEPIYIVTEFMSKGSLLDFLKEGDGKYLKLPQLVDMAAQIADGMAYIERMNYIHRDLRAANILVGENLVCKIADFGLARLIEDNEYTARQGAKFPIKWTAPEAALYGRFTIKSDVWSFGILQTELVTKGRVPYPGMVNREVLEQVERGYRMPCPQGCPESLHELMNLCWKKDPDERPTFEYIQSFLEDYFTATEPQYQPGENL

SMILES: O=C(NOC[C@H](O)CO)c1ccc(F)c(F)c1Nc1ccc(I)cc1F
- % of control [1]: 45%

- % of control [2]: 8.9%
SMILES: CCc1ccccc1C(=O)Nc1n[nH]c2c(C)c(F)c(C3C(C#N)=C(C)N(C)C(C)=C3C#N)cc12 [BAY-3827]

- % of inhibition [3]: 17.4%
- % of inhibition ([4]; at 0.01 µM): 1.3%
- % of inhibition ([4]; at 0.04 µM): 12.1%
- % of inhibition ([4]; at 0.2 µM): 12.1%
- % of inhibition ([4]; at 1 µM): 12.5%
- % of inhibition ([4]; at 5 µM): 28.1%
SMILES: CC[C@@H]1[C@H](F)C(=O)N[C@@H]1COc1nccc2cc(C(N)=O)c(OC)cc12 [ZIMLOVISERTIB]

SMILES: COCC(=O)NC/C=C/c1ccc2ncnc(Nc3ccc(Oc4ccc(C)nc4)c(C)c3)c2c1 [CP-724714]
- % of control [5]: 100%

SMILES: COc1cc(C(=O)N2CC[C@@H](O)[C@@H](N)C2)cc2nc(-c3cc4ccccc4n3CC3CC3)n(C)c12
- pXC50 [6]: 4.9 M

SMILES: CN(C)CCOc1ccc(-c2nc(-c3ccncc3)c(-c3ccc4c(c3)CC/C4=N\O)[nH]2)cc1
- % of control [7]: 82%
- % of control [8]: 100%

SMILES: Nc1cnc(N2CCc3cc(S(=O)(=O)Nc4c(F)cc(Cl)cc4F)cc(N4CCCC4=O)c32)nc1 [TP-020n]
- % of inhibition [9]: -14.4%

SMILES: N#Cc1cccc(-c2c[nH]c3ncnc(N4CCOCC4)c23)c1
- % of control [10]: 100%
